This note sets out measurements from patent US11084800B2 (Achillion Pharmaceuticals, Inc., priority 2017, dated 2021).

Chain of Human Factor D (P00746 26-253): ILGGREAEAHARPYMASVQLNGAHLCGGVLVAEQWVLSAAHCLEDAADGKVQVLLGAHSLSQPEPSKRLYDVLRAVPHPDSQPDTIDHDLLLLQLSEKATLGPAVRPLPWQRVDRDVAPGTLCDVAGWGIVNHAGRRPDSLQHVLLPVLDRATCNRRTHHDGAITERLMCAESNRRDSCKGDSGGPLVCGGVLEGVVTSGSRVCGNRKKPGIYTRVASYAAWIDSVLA

The first experiment concerns the target Human Factor D (Homo sapiens (Human), UniProt P00746). As to the kind of experiment: Human Factor D Assay. It is filed as biochemical. The following applies: Factor D inhibition, assay of Example 10; read-out: IC5 (Stars). An outline of the steps: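 Serum-purified Factor D (80 nM final) preincubated 5 min at room temperature with compound in 50 mM Tris, 1 M NaCl, pH 7.5. Z-L-Lys-SBz and DTNB added at 100 μM each; A405 followed every 30 s for 30 min. IC50 from nonlinear regression of rates versus concentration.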
With `Cc1ncc(-c2cc(C)c3c(c2)c(C#N)nn3CC(=O)N2[C@H](C(=O)Nc3nc(Br)ccc3C)C[C@@]3(C)C[C@@H]23)cn1` [Compound 407, (1R,3S,5R)-N-(6-bromo-3-methylpyridin-2-yl)-2-(2-(3-cyano-7-methyl-5-(2-methylpyrimidin-5-yl)-1H-indazol-1-yl)acetyl)-5-methyl-2-azabicyclo[3.1.0]hexane-3-carboxamide], the IC50 was less than 1000 nM. On the same count and under the same terms, then `CC(=O)c1nn(CC(=O)N2[C@H](C(=O)Nc3nc(Br)ccc3CN(C)C)C[C@@]3(C)C[C@@H]23)c2c(Cl)cc(-c3cnc(C)nc3)cc12` [Compound 408, (1R,3S,5R)-2-(2-(3-acetyl-7-chloro-5-(2-methylpyrimidin-5-yl)-1H-indazol-1-yl)acetyl)-N-(6-bromo-3-((dimethylamino)methyl)pyridin-2-yl)-5-methyl-2-azabicyclo[3.1.0]hexane-3-carboxamide], with less than 1000 nM; and `CC(=O)c1nn(CC(=O)N2[C@H](C(=O)Nc3nc(Br)ccc3C)C[C@@]3(Cc4nc(C)no4)C[C@@H]23)c2c(CF)cc(-c3cnc(C)nc3)cc12` [Compound 409, (1R,3S,5R)-2-(2-(3-acetyl-7-(fluoromethyl)-5-(2-methylpyrimidin-5-yl)-1H-indazol-1-yl)acetyl)-N-(6-bromo-3-methylpyridin-2-yl)-5-((3-methyl-1,2,4-oxadiazol-5-yl)methyl)-2-azabicyclo[3.1.0]hexane-3-carboxamide], with less than 1000 nM; and `CC(=O)c1nn(CC(=O)N2C[C@@](F)(CF)C[C@H]2C(=O)Nc2nc(Br)ccc2C)c2c(C)nc(-c3cnc(C)nc3)cc12` [Compound 410, (2S,4R)-1-(2-(3-acetyl-7-methyl-5-(2-methylpyrimidin-5-yl)-1H-pyrazolo[3,4-c]pyridin-1-yl)acetyl)-N-(6-bromo-3-methylpyridin-2-yl)-4-fluoro-4-(fluoromethyl)pyrrolidine-2-carboxamide], with less than 1000 nM. On the same count and under the same terms, then `CC(=O)c1nn(CC(=O)N2C[C@H]3C[C@H]3[C@H]2C(=O)NCc2cccc(Cl)c2F)c2c(C)nc(-c3cnc(C)nc3)cc12` [Compound 411, (1R,2S,5S)-3-(2-(3-acetyl-7-methyl-5-(2-methylpyrimidin-5-yl)-1H-pyrazolo[3,4-c]pyridin-1-yl)acetyl)-N-(3-chloro-2-fluorobenzyl)-3-azabicyclo[3.1.0]hexane-2-carboxamide], with less than 1000 nM; and `CC(=O)c1nn(CC(=O)N2C[C@H]3C[C@H]3[C@H]2C(=O)NCc2cccc(Cl)c2F)c2ccc(-c3cnc(C)nc3)cc12` [Compound 412, (1R,2S,5S)-3-(2-(3-acetyl-5-(2-methylpyrimidin-5-yl)-1H-indazol-1-yl)acetyl)-N-(3-chloro-2-fluorobenzyl)-3-azabicyclo[3.1.0]hexane-2-carboxamide], with less than 1000 nM; and `CC(=O)c1nn(CC(=O)N2C[C@H]3C[C@H]3[C@H]2C(=O)NCc2cccc(Cl)c2F)c2c(C)cc(-c3cnc(C)nc3)cc12` [Compound 413], with less than 1000 nM. Same read-out and setting: as for `CC(=O)c1nn(CC(=O)N2[C@H](C(=O)Nc3nc(Br)ccc3C)C[C@@]3(CN(C(C)C)C(C)C)C[C@@H]23)c2c(C)cc(-c3cnc(C)nc3)cc12` [Compound 415, (1R,3S,5R)-2-(2-(3-acetyl-7-methyl-5-(2-methylpyrimidin-5-yl)-1H-indazol-1-yl)acetyl)-N-(6-bromo-3-methylpyridin-2-yl)-5-((diisopropylamino)methyl)-2-azabicyclo[3.1.0]hexane-3-carboxamide], the figure is less than 1000 nM; as for `CC(=O)c1cn(CC(=O)N2[C@H](C(=O)Nc3nc(Br)ccc3C)C[C@@]3(C)C[C@@H]23)c2ccc(-c3cnc(C)nc3)cc12` [Compound 416, (1R,3S,5R)-2-(2-(3-acetyl-5-(2-methylpyrimidin-5-yl)-1H-indol-1-yl)acetyl)-N-(6-bromo-3-methylpyridin-2-yl)-5-methyl-2-azabicyclo[3.1.0]hexane-3-carboxamide], less than 1000 nM; as for `CC(=O)c1nn(CC(=O)N2C[C@@](F)(CF)C[C@H]2C(=O)Nc2nc(Br)c(F)cc2C)c2c(C)nc(-c3cnc(C)nc3)cc12` [Compound 417, (2S,4R)-1-(2-(3-acetyl-7-methyl-5-(2-methylpyrimidin-5-yl)-1H-pyrazolo[3,4-c]pyridin-1-yl)acetyl)-N-(6-bromo-5-fluoro-3-methylpyridin-2-yl)-4-fluoro-4-(fluoromethyl)pyrrolidine-2-carboxamide], less than 1000 nM.

Take `CC(=O)c1nn(CC(=O)N2C[C@@](F)(CF)C[C@H]2C(=O)Nc2cncc(Br)n2)c2c(C)nc(-c3cnc(C)nc3)cc12` [Compound 418, (2S,4R)-1-(2-(3-acetyl-7-methyl-5-(2-methylpyrimidin-5-yl)-1H-pyrazolo[3,4-c]pyridin-1-yl)acetyl)-N-(6-bromopyrazin-2-yl)-4-fluoro-4-(fluoromethyl)pyrrolidine-2-carboxamide]: the IC50 was less than 1000 nM. On the same count and under the same terms, as for `CC(=O)c1nn(CC(=O)N2C[C@](F)(Cn3ccnn3)C[C@H]2C(=O)Nc2nc(Br)ccc2C)c2ccc(-c3cnc(C)nc3)cc12` [Compound 419], the figure is less than 1000 nM. Still for that read-out and setting: as for `CC(=O)c1nn(CC(=O)N2C[C@](F)(CN(C)C)C[C@H]2C(=O)Nc2nc(Br)ccc2C)c2ccc(-c3cnc(C)nc3)cc12` [Compound 420, (2S,4R)-1-(2-(3-acetyl-5-(2-methylpyrimidin-5-yl)-1H-indazol-1-yl)acetyl)-N-(6-bromo-3-methylpyridin-2-yl)-4-((dimethylamino)methyl)-4-fluoropyrrolidine-2-carboxamide], the figure is 1000 to 10000 nM. For the compound `CC(=O)c1nn(CC(=O)N2C[C@](F)(CF)C[C@H]2C(=O)Nc2nc(Br)ccc2C)c2ccc(-c3cnc(C)nc3)cc12` [Compound 422, (2S,4S)-1-(2-(3-acetyl-5-(2-methylpyrimidin-5-yl)-1H-indazol-1-yl)acetyl)-N-(6-bromo-3-methylpyridin-2-yl)-4-fluoro-4-(fluoromethyl)pyrrolidine-2-carboxamide], the IC50 is less than 1000 nM. On the same count and under the same terms, as for `CC(=O)c1nn(CC(=O)N2[C@H](C(=O)Nc3nc(Br)c(F)cc3C)C[C@@]3(Cc4nc(C)no4)C[C@@H]23)c2c(C)nc(-c3cnc(C)nc3)cc12` [Compound 423, (1R,3S,5R)-2-(2-(3-acetyl-7-methyl-5-(2-methylpyrimidin-5-yl)-1H-pyrazolo[3,4-c]pyridin-l-yl)acetyl)-N-(6-bromo-5-fluoro-3-methylpyridin-2-yl)-5-((3-methyl-1,2,4-oxadiazol-5-yl)methyl)-2-azabicyclo[3.1.0]hexane-3-carboxamide], the figure is less than 1000 nM; as for `CC(=O)c1nn(CC(=O)N2[C@H](C(=O)Nc3nc(Br)c(F)cc3C)C[C@@]3(Cc4nc(C)no4)C[C@@H]23)c2c(C)cc(-c3cnc(C)nc3)cc12` [Compound 424, (1R,3S,5R)-2-(2-(3-acetyl-7-methyl-5-(2-methylpyrimidin-5-yl)-1H-indazol-1-yl)acetyl)-N-(6-bromo-5-fluoro-3-methylpyridin-2-yl)-5-((3-methyl-1,2,4-oxadiazol-5-yl)methyl)-2-azabicyclo[3.1.0]hexane-3-carboxamide], less than 1000 nM. On the same count and under the same terms, then `CC(=O)c1nn(CC(=O)N2[C@H](C(=O)Nc3nc(C(F)(F)F)ccc3C)C[C@@]3(Cc4nc(C)no4)C[C@@H]23)c2c(C)cc(-c3cnc(C)nc3)cc12` [Compound 425, (1R,3S,5R)-2-(2-(3-acetyl-7-methyl-5-(2-methylpyrimidin-5-yl)-1H-indazol-1-yl)acetyl)-5-((3-methyl-1,2,4-oxadiazol-5-yl)methyl)-N-(3-methyl-6-(trifluoromethyl)pyridin-2-yl)-2-azabicyclo[3.1.0]hexane-3-carboxamide], with less than 1000 nM; and `CC(=O)c1cn(CC(=O)N2[C@H](C(=O)Nc3nc(Br)ccc3C)C[C@@]3(C)C[C@@H]23)c2c(C)cc(-c3cnc(C)nc3)cc12` [Compound 426, (1R,3S,5R)-2-(2-(3-acetyl-7-methyl-5-(2-methylpyrimidin-5-yl)-1H-indol-1-yl)acetyl)-N-(6-bromo-3-methylpyridin-2-yl)-5-methyl-2-azabicyclo[3.1.0]hexane-3-carboxamide], with less than 1000 nM. Still for that read-out and setting: as for `CC(=O)c1nn(CC(=O)N2[C@H](C(=O)NCc3cccc(Cl)c3F)C[C@@]3(Cc4nc(C)no4)C[C@@H]23)c2c(C)cc(-c3cnc(C)nc3)cc12` [Compound 427, (1R,3S,5R)-2-(2-(3-acetyl-7-methyl-5-(2-methylpyrimidin-5-yl)-1H-indazol-1-yl)acetyl)-N-(3-chloro-2-fluorobenzyl)-5-((3-methyl-1,2,4-oxadiazol-5-yl)methyl)-2-azabicyclo[3.1.0]hexane-3-carboxamide], the figure is less than 1000 nM. For the compound `CC(=O)c1nn(CC(=O)N2[C@H](C(=O)Nc3nc(Br)ccc3Cl)C[C@@]3(Cc4nc(C)no4)C[C@@H]23)c2c(C)cc(-c3cnc(C)nc3)cc12` [Compound 428, (1R,3S,5R)-2-(2-(3-acetyl-7-methyl-5-(2-methylpyrimidin-5-yl)-1H-indazol-1-yl)acetyl)-N-(6-bromo-3-chloropyridin-2-yl)-5-((3-methyl-1,2,4-oxadiazol-5-yl)methyl)-2-azabicyclo[3.1.0]hexane-3-carboxamide], the IC50 was less than 1000 nM.

The same experiment, now with this note: Table 8; Factor D 80 nM, substrate Z-L-Lys-SBz; read-out: IC50.
Consider `COC(=O)CCCCCCCCCCCCCCCCC(=O)N[C@@H](CCC(=O)NCCOCCOCC(=O)NCCOCCOCC(=O)NC[C@@]12C[C@@H](C(=O)Nc3nc(Br)ccc3C)N(C(=O)Cn3nc(C(C)=O)c4cc(-c5cnc(C)nc5)ncc43)[C@@H]1C2)C(=O)OC` [Compound 406], for which the IC50 is less than 1000 nM. The same measure, in the same setting: then `CC(=O)c1nn(CC(=O)N2[C@H](C(=O)Nc3nc(Br)ccc3C)C[C@@]3(C)C[C@@H]23)c2cnc(-c3cnc(CNC(=O)COCCOCCNC(=O)COCCOCCNC(=O)CC[C@H](NC(=O)CCCCCCCCCCCCCCCCC(=O)O)C(=O)O)nc3)cc12` [Compound 414], with less than 1000 nM.
